Assay [1] concerns HeLa. The experiment in a line: Cytotoxicity against human HeLa cells after 72 hrs by MTT assay. It counts as functional, cell-based. Background: Formazan colour is commonly taken as a measure of viable cells.
The subject of assay [2] is Nucleic Acid. The assay is described as follows: Binding affinity to poly U single stranded RNA at pH 7 by fluorometric titration method. It counts as nucleic-acid assay.
The next assay has as its system Caco-2. The assay is described as follows: Cytotoxicity against human Caco-2 cells after 72 hrs by MTT assay. Type of assay: functional, cell-based. To be noted: Caco-2, 72 h.
For assay [3], the system named is Calf thymus DNA. The experiment in a line: Binding affinity to calf thymus double helix DNA assessed as thermal denaturation-associated change in melting temperature at pH 7 by tangent method. To be noted: Bos taurus. Type of assay: nucleic-acid assay.
Assay [4] can be described thus: Cytotoxicity against human lymphocytes after 72 hrs by MTT assay. To be noted: Lymphocyte. It counts as cell-based.
The test system of the next assay is Jurkat. The experiment in a line: Cytotoxicity against human Jurkat cells after 72 hrs by MTT assay. Type of assay: functional, cell-based.
The test system of assay [5] is Nucleic Acid. The experiment in a line: Binding affinity to poly A single stranded RNA at pH 7 by fluorometric titration method. It counts as nucleic-acid assay.
In another assay the test system is NCI-H358. The experiment in a line: Cytotoxicity against human NCI-H358 cells after 72 hrs by MTT assay. It counts as functional, cell-based. To be noted: NCI-H358, 72 h.
A further assay has as its system SW-620. The assay is described as follows: Cytotoxicity against human SW620 cells after 72 hrs by MTT assay. It counts as functional, cell-based. To be noted: SW-620, 72 h.
The subject of the next assay is HT-29. The experiment in a line: Cytotoxicity against human HT-29 cells after 72 hrs by MTT assay. Type of assay: functional, cell-based. To be noted: HT-29, 72 h.
Assay [6] relates to Nucleic Acid. The experiment in a line: Binding affinity to poly A-poly U assessed as thermal denaturation-associated change in melting temperature at pH 7 by tangent method. It counts as nucleic-acid assay.
The test system of assay [7] is Nucleic Acid. The experiment in a line: Binding affinity to poly A-poly U at pH 7 by fluorometric titration method. It counts as nucleic-acid assay.
Another assay has as its system K562. The assay is described as follows: Cytotoxicity against human K562 cells after 72 hrs by MTT assay. It counts as functional, cell-based. To be noted: K562, 72 h.
A further assay deals with HuT78. The assay is described as follows: Cytotoxicity against human HUT78 cells after 72 hrs by MTT assay. It counts as functional, cell-based. To be noted: HuT78, 72 h.
Assay [8] can be described thus: Cytotoxicity against HAEC after 72 hrs by MTT assay. The arrangement: species or system Homo sapiens.
A short description of assay [9]: Cytotoxicity against human Hep2 cells after 72 hrs by MTT assay. Type of assay: cell-based. To be noted: HEp-2, 72 h.
In assay [10] the test system is Calf thymus DNA. The assay is described as follows: Binding affinity to calf thymus double stranded DNA at pH 7 by fluorometric titration method. It counts as nucleic-acid assay. To be noted: Bos taurus.
A further assay has as its system MIA PaCa-2. The experiment in a line: Cytotoxicity against human MIAPaCa2 cells after 72 hrs by MTT assay. It counts as functional, cell-based. To be noted: MIA PaCa-2, 72 h.
Assay [11] concerns Nucleic Acid. The assay is described as follows: Binding affinity to poly C single stranded RNA at pH 7 by fluorometric titration method. Type of assay: nucleic-acid assay.
In assay [12] the test system is Nucleic Acid. The assay is described as follows: Binding affinity to poly G single stranded RNA at pH 7 by fluorometric titration method. It counts as nucleic-acid assay.
For assay [13], the system named is Nucleic Acid. The experiment in a line: Binding affinity to double stranded RNA at pH 7 by fluorometric titration method. It counts as nucleic-acid assay.
The test system of assay [14] is Nucleic Acid. The assay is described as follows: Binding affinity to nuclear DNA in human HeLa cells at 0.1 uM after 60 mins by DAPI staining-based fluorescence microscopy. It counts as cell-based.
The test system of assay [15] is HeLa. The experiment in a line: Cytotoxicity against human HeLa cells at 0.1 uM after 60 mins by DAPI staining-based visible light microscopy. Type of assay: functional, cell-based.

Structures are written as SMILES. Calls of active or inactive are those of the source. The calls are words filed in the database; no cut-off is given here.

As a reminder, the IC50 is the concentration that inhibits the measured activity by half. Read a low IC50 as greater potency in that assay. Usually ΔTm stands for the change in melting temperature against a reference sample.

Regarding `CC1=C/C(=C/c2oc3ccccc3[n+]2C)C(C#N)=C2Sc3ccccc3N12.[O-][Cl+3]([O-])([O-])[O-]`, the IC50 with HeLa [1] stood at 8200 nM; in the assay on Caco-2, 9600 nM; in [4], 100 nM; in the assay with Jurkat it was 3900 nM; in the assay on NCI-H358, 2400 nM; in the assay on SW-620, 6800 nM. Also, the IC50 amounted to 5900 nM in the assay on HT-29; 50 nM in the assay on K562; 500 nM with HuT78; 50100 nM in [8]; 5500 nM in assay [9]; 2200 nM in the assay with MIA PaCa-2. Besides, the log Ks in the assay with Nucleic Acid [2] is under 4; with Nucleic Acid [5] it was 6.2; with Nucleic Acid [7], 6.8; in the assay on Calf thymus DNA [10] it was 5.1; in the assay with Nucleic Acid [11], under 4; with Nucleic Acid [12], over 6. The ΔTm was determined as 4.1 °C with Calf thymus DNA [3] and 19.5 °C with Nucleic Acid [6]. In addition, the result in the assay on Nucleic Acid [13] was Active.

In the case of `COc1ccc2c(c1)SC1=N/C(=C\c3oc4ccccc4[n+]3C)C=C(C)N12.[O-][Cl+3]([O-])([O-])[O-]`, the concentration for half-maximal inhibition (IC50) in the assay on HeLa [1] worked out at 2100 nM; with Caco-2, 1000 nM; in assay [4], 40 nM; with Jurkat, 500 nM; with NCI-H358, 800 nM; in the assay with SW-620 it was 600 nM. Further, the IC50 came out at 500 nM in the assay on HT-29; 1 nM with K562; 100 nM in the assay on HuT78; 1100 nM in [8]; 700 nM in assay [9]; 500 nM in the assay on MIA PaCa-2. Besides, the log Ks was under 4 in the assay with Nucleic Acid [2], 5 with Calf thymus DNA [10], under 4 with Nucleic Acid [11] and over 6 in the assay on Nucleic Acid [12]. Moreover, the ΔTm in the assay on Calf thymus DNA [3] was 2.7 °C; in the assay with Nucleic Acid [6], 0 °C. In addition, the result in the assay on Nucleic Acid [5] and in the assay on Nucleic Acid [13] was Active. Besides, the outcome with Nucleic Acid [14] and in the assay on HeLa [15] was inactive.

Regarding `CC1=C/C(=C/c2sc3ccccc3[n+]2C)N=C2Sc3cc(OCCO)ccc3N12.[O-][Cl+3]([O-])([O-])[O-]`, the IC50 was 80000 nM in the assay on HeLa [1]; over 100000 nM in the assay with Caco-2; 1200 nM in assay [4]; 900 nM in the assay on Jurkat; 2100 nM with NCI-H358; 550 nM with SW-620. In addition, the IC50 in the assay with HT-29 is 1100 nM; in the assay with K562 it was 60 nM; with HuT78 it was 500 nM; in [8] it was over 200000 nM; in assay [9], 930 nM; in the assay on MIA PaCa-2, 510 nM. The log Ks was under 4 in the assay on Nucleic Acid [2]; 4.5 in the assay with Nucleic Acid [7]; 4.8 with Calf thymus DNA [10]; under 4 in the assay with Nucleic Acid [11]; over 6 in the assay on Nucleic Acid [12]. The ΔTm with Calf thymus DNA [3] was 1.3 °C; in the assay with Nucleic Acid [6], 0 °C. Besides, the outcome with Nucleic Acid [5] and in the assay with Nucleic Acid [13] was Active.

As for `CC1=C/C(=C/c2oc3ccccc3[n+]2C)N=C2Sc3cc(OCCO)ccc3N12.[O-][Cl+3]([O-])([O-])[O-]`, the IC50 was found to be 80000 nM with HeLa [1]; 40000 nM in the assay with Caco-2; 590 nM in assay [4]; 6600 nM in the assay with Jurkat; 9000 nM in the assay with NCI-H358; 5200 nM in the assay with SW-620. The IC50 worked out at 7200 nM with HT-29; 70 nM in the assay on K562; 700 nM in the assay on HuT78; 70000 nM in assay [8]; 6800 nM in assay [9]; 8500 nM in the assay with MIA PaCa-2. Moreover, the log Ks with Nucleic Acid [2] was under 4; with Nucleic Acid [7], 4.3; with Calf thymus DNA [10] it was 4.6; in the assay with Nucleic Acid [11], under 4; in the assay with Nucleic Acid [12] it was over 6. Besides, the shift in melting temperature (ΔTm) in the assay on Calf thymus DNA [3] came out at 0.8 °C; in the assay on Nucleic Acid [6] it was 0 °C. For the same compound, the outcome in the assay with Nucleic Acid [5] and in the assay on Nucleic Acid [13] was Active.

For the compound `COc1ccc2c(c1)SC1=N/C(=C\c3sc4ccccc4[n+]3C)C=C(C)N12.[O-][Cl+3]([O-])([O-])[O-]`, the IC50 in the assay with HeLa [1] worked out at 500 nM; with Caco-2 it was 800 nM; in assay [4], 100 nM; with Jurkat, 100 nM; in the assay on NCI-H358, 600 nM; in the assay with SW-620 it was 200 nM. The IC50 in the assay on HT-29 was 500 nM; in the assay on K562 it was 1 nM; with HuT78, 10 nM; in [8] it was 3300 nM; in [9], 500 nM; in the assay with MIA PaCa-2 it was 60 nM. The log Ks is under 4 with Nucleic Acid [2]; 4.2 in the assay with Nucleic Acid [7]; 4.5 with Calf thymus DNA [10]; under 4 in the assay with Nucleic Acid [11]; over 6 in the assay on Nucleic Acid [12]. Further, the ΔTm amounted to 3 °C in the assay on Calf thymus DNA [3] and 0 °C in the assay on Nucleic Acid [6]. In addition, the result in the assay on Nucleic Acid [5] and in the assay with Nucleic Acid [13] was Active. Also, the result in the assay on Nucleic Acid [14] and with HeLa [15] was inactive.

In the case of `CCOc1ccc2c(c1)SC1=N/C(=C\c3oc4ccccc4[n+]3C)C=C(C)N12.[O-][Cl+3]([O-])([O-])[O-]`, the IC50 in the assay on HeLa [1] amounted to 2000 nM; in the assay on Caco-2, 800 nM; in assay [4] it was 10 nM; in the assay on Jurkat, 90 nM; with NCI-H358 it was 100 nM; in the assay with SW-620, 100 nM. In addition, the IC50 stood at 600 nM in the assay with HT-29; 1 nM with K562; 50 nM in the assay on HuT78; 1000 nM in assay [8]; 500 nM in assay [9]; 100 nM in the assay with MIA PaCa-2. Besides, the log Ks is under 4 in the assay with Nucleic Acid [2]; 4.5 in the assay with Nucleic Acid [7]; 4.7 in the assay on Calf thymus DNA [10]; under 4 in the assay with Nucleic Acid [11]; over 6 in the assay on Nucleic Acid [12]. Besides, the ΔTm worked out at 4 °C in the assay with Calf thymus DNA [3] and 0 °C with Nucleic Acid [6]. Moreover, the result in the assay with Nucleic Acid [5] and with Nucleic Acid [13] was Active.

For `CC1=C/C(=C/c2sc3ccccc3[n+]2C)N=C2C=CC=CN12.[O-][Cl+3]([O-])([O-])[O-]`, the 50% inhibitory concentration (IC50) in the assay with HeLa [1] came to 9900 nM; in the assay on Caco-2 it was 10100 nM; in [4] it was 600 nM; with Jurkat it was 1300 nM; with NCI-H358, 2000 nM; in the assay on SW-620, 7000 nM. The IC50 turned out to be 5200 nM in the assay with HT-29; 90 nM in the assay on K562; 200 nM with HuT78; 9600 nM in [8]; 3600 nM in assay [9]; 1800 nM in the assay on MIA PaCa-2. The outcome in the assay with Nucleic Acid [2], in the assay with Nucleic Acid [5], in the assay on Calf thymus DNA [10], in the assay with Nucleic Acid [11], in the assay with Nucleic Acid [12] and in the assay with Nucleic Acid [13] was inactive. In addition, the ΔTm was found to be 1.9 °C in the assay with Calf thymus DNA [3] and 10.4 °C with Nucleic Acid [6].

Regarding `CC1=C/C(=C/c2oc3ccccc3[n+]2C)N=C2Sc3cc(Cl)ccc3N12.[O-][Cl+3]([O-])([O-])[O-]`, the IC50 in the assay on HeLa [1] stood at 3900 nM; with Caco-2, 8200 nM; in [4] it was 90 nM; with Jurkat, 520 nM; in the assay on NCI-H358 it was 1100 nM; in the assay with SW-620, 5800 nM. The IC50 in the assay with HT-29 came out at 5100 nM; in the assay with K562 it was 60 nM; in the assay on HuT78 it was 60 nM; in assay [8] it was 50300 nM; in assay [9], 7000 nM; with MIA PaCa-2, 2100 nM. In addition, the log Ks with Nucleic Acid [2] was under 4; in the assay with Nucleic Acid [7] it was 4.5; with Calf thymus DNA [10] it was 4.6; in the assay on Nucleic Acid [11], under 4; in the assay on Nucleic Acid [12], over 6. Moreover, the ΔTm in the assay with Calf thymus DNA [3] was determined as 1 °C; in the assay with Nucleic Acid [6], 0 °C. The result in the assay on Nucleic Acid [5] and with Nucleic Acid [13] was Active.

The record behind these values is ChEMBL document CHEMBL1152498, “Minor structural differences of monomethine cyanine derivatives yield strong variation in their interactions with DNA, RNA as well as on their in vitro antiproliferative activity” (Bioorg Med Chem, 2009).
